Measurements reported in patent US10662194B2, “Substituted 6-anilino-9-heterocyclylpurine derivatives for inhibition of plant stress” (UNIVERZITA PALACKEHO V OLOMOUCI, priority 2014, dated 2020).
Read-outs that look alike come from different tables or passages of the source.

How the values were obtained:
[1] = test system: CKX1 overproducing (35S:CKX1) Arabidopsis seedlings; assay: In vitro shoot and root growth of cytokinin deficient Arabidopsis plants; assay type: in vivo; conditions: for complementation of wild type shoot phenotype: 0.1 μM in MS medium, FIG. 3, 4
Description: Constitutive overexpression of CKX in 35S:CKX1 plants leads to enhanced root growth. If CKX inhibitor can restore WT phenotype, it is expected that inhibition of the CKX activity in 35S:AtCKX1 plants should thus have no effect or inhibit their root growth. Such observation was done in case of INCYDE, but not compound 12.

[2] = test system: wild-type Arabidopsis plants; assay: In vitro root growth of wild-type Arabidopsis plants; assay type: in vivo; conditions: 0.1 μM in MS medium, FIG. 6
Method: As shown in previous example presence of compound 12 in the growth medium has positive effect on the root growth of cytokinin-deficient Arabidopsis plants. This effect was further studied using wild-type Arabidopsis plants and compared with biologically and structurally relevant compounds, a cytokinin BAP and a CKX inhibitor INCYDE. […] Arabidopsis seedlings were grown in vitro on a standard MS medium containing 0.1 μM cytokinin BAP, the same concentration of compound 12 and the same concentration of CKX inhibitor INCYDE (2-chloro-6-(3-methoxyanilino)purine).

[3] = target: T1, recombinant AtCKX2 (Arabidopsis thaliana, UniProt Q9FUJ3); assay: Inhibition of cytokinin oxidase/dehydrogenase activity (PMS/MTT microtitre assay); assay type: biochemical
T1 construct: made in house; host or cells: S. cerevisiae strain 23344c ura-
T1 sequence (Q9FUJ3 23-501): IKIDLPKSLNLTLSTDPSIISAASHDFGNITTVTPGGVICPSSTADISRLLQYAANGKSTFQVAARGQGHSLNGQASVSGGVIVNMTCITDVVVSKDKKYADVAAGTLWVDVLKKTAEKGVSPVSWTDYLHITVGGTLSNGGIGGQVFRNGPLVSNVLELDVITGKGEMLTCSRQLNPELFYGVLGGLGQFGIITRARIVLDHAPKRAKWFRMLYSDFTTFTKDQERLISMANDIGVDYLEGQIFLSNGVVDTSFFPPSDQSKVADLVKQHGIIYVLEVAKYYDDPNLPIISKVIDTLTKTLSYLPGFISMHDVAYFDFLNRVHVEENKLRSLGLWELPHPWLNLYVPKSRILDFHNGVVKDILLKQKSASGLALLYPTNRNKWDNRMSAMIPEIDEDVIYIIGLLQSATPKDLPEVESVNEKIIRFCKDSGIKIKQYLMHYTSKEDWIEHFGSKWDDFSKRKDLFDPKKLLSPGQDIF
Method: IC50 measurements were done using the assay in microtitre plate. Each well contained 100 μL of PMS/MTT [phenazine methosulfate/3-(4,5-dimethylthiazol-2-yl)-2,5-diphenyltetrazolium bromide] reaction mixture (final concentrations: 0.1 M KH2PO4, pH 7.4, 1 mM MTT, 0.2 mM PMS) containing the tested compound (3×10^−7 M-3×10^−4 M) and 30 μM N^6-isopentenyladenine (iP) as a substrate. 100 μL of cell-free growth medium of S. cerevisiae strain 23344c ura^− harboring the plasmid pYES2-AtCKX2 was directly used as a source of AtCKX2. Plates were incubated in the dark for 30 min at 37° C. and the enzymatic reaction was stopped by 25 μL of 35% acetic acid. The absorbance at 578 nm was measured using spectrophotometer Tecan. Absorbance of the sample without iP was subtracted.
The IC50 value, the compound concentration that inhibits the enzyme activity to 50%, was calculated from the obtained dose response curves. The values shown in Table 7 are means of three replicates and the entire test was repeated at least twice. […] Compound 12 is an effective inhibitor of AtCKX2 activity, app. 3-times stronger that thidiazuron and only app. 3-times weaker than the structurally related compound INCYDE (2-chloro-6-(3-methoxyanilino)purine).

[4] = target: T2, AHK3 (Arabidopsis thaliana, UniProt Q9C5U1); assay: Escherichia coli cytokinin receptor activation assay (AHK3); assay type: cell-based; conditions: 10^−7 M-5×10^−5 M, compared to trans-zeatin, FIG. 1
T2 construct: expressed in transfected cells; host or cells: Escherichia coli strain KMI001
T2 sequence (Q9C5U1 1-1036): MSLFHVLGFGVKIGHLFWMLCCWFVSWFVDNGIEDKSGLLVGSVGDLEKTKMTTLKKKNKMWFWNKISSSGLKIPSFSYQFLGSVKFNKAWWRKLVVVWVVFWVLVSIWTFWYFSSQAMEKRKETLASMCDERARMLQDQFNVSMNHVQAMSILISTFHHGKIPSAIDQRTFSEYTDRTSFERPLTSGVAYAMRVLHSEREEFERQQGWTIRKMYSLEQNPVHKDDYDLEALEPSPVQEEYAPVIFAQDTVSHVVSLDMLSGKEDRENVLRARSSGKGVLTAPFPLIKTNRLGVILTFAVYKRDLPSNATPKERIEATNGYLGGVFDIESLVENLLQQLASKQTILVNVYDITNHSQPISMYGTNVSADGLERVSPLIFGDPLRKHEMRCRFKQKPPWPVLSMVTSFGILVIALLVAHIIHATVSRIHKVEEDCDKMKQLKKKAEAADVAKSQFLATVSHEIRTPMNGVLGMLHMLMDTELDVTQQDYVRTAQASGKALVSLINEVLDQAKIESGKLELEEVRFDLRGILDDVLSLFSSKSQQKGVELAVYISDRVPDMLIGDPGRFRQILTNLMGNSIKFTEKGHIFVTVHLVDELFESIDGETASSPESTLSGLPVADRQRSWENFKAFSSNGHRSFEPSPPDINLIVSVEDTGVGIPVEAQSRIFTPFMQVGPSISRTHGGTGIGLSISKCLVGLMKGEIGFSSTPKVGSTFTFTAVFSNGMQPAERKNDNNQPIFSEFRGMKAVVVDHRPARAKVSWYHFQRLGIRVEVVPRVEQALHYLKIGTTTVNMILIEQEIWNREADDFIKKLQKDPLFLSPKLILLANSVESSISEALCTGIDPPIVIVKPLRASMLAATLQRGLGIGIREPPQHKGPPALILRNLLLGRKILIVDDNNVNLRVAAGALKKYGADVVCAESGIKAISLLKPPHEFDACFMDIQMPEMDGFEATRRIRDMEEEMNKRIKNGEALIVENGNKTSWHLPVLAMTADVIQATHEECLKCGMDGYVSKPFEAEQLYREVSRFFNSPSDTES
Method: (§1) Escherichia coli strains KMI001 harbouring the plasmid pIN-III-AHK4 or pSTV28-AHK3 were grown overnight at 25° C. in M9 media enriched with 0.1% casamino acids to OD600˜1. The preculture was diluted 1:600 in 1 ml M9 medium containing 0.1% casamino acids and 1 μL stock solution of either the tested compound (10^−7 M-5×10^−5 M) or solvent control (DMSO, ethanol, methanol) were added. The cultures were further grown at 25° C. in microtiter plate, 200 μL per well. […] The cultures were centrifuged and 50 μL aliquots of the supernatant were transferred to microtiter plate containing 2 μL 50 mM 4-methyl umbelliferyl galactoside which was subsequently incubated for 1 h at 37° C. The reaction was stopped by adding 100 μL 0.2 M Na2CO3. Fluorescence was measured using a Fluoroscan Ascent (Labsystems, Finland) at the excitation and emission wavelengths of 365 and 460 nm, respectively. The OD600 of remaining culture was determined and β-galactosidase activity was calculated as nmol 4-methylumbelliferone×OD600^−1×h^−1.

[5] = target: T3, CRE1/AHK4 (Arabidopsis thaliana, UniProt Q9C5U0); assay: Escherichia coli cytokinin receptor activation assay (CRE1/AHK4); assay type: cell-based; conditions: 10^−7 M-5×10^−5 M, compared to trans-zeatin, FIG. 1
T3 construct: expressed in transfected cells; host or cells: Escherichia coli strain KMI001
Method: as §1

[6] = test system: ARR5:GUS reporter gene; assay: Induction of cytokinin reporter ARR5:GUS in transgenic Arabidopsis plants; assay type: in vivo; conditions: 0.01-10 μM, 17 h, FIG. 2
Method: Cytokinins induce in Arabidopsis transcription of gene ARR5, a member of A-type response regulator family classified as cytokinin primary response genes being expressed down-stream of sensing by cytokinin receptors. We cultivated transgenic Arabidopsis plants harbouring PARR5::GUS reporter (D'Agostino et al. Plant Physiol. 124: 1706-1717, 2000) in MS medium containing cytokinin BAP, CKX inhibitor INCYDE and novel compounds 12 and 91 in concentrations 0.01, 0.1, 1, 5, 10 μM; DMSO (0.1%) was tested as solvent control. Seeds were surface-sterilized in 70% ethanol and then placed into wells of 6-well microtiter plate (TPP, Switzerland) containing 3 mL of MS medium in each well. After sowing plates were pretreated in dark at 4° C. to synchronize the germination of the seeds. […] Quantitative estimation of the level of ARR5:GUS gene induction was done according to method published by Romanov et al. (Romanov et al. FEBS Letters 515: 39-43, 2002). After extraction of proteins the GUS activity was determined using incubation with fluorogenic substrate MUG (4-methylumbelliferyl glucuronid; 1 h, 37° C.) and then fluorescence 365 nm and 460 nm (excitation and emission wavelengths) was recorded, as described in detail by Spíchal et al. (Spíchal et al. Plant and Cell Physiology 45: 1299-1305, 2004).

[7] = 30 μM iP substrate, 30 min, 37° C., read-out: IC50

T3 sequence (Q9C5U0 whole entry): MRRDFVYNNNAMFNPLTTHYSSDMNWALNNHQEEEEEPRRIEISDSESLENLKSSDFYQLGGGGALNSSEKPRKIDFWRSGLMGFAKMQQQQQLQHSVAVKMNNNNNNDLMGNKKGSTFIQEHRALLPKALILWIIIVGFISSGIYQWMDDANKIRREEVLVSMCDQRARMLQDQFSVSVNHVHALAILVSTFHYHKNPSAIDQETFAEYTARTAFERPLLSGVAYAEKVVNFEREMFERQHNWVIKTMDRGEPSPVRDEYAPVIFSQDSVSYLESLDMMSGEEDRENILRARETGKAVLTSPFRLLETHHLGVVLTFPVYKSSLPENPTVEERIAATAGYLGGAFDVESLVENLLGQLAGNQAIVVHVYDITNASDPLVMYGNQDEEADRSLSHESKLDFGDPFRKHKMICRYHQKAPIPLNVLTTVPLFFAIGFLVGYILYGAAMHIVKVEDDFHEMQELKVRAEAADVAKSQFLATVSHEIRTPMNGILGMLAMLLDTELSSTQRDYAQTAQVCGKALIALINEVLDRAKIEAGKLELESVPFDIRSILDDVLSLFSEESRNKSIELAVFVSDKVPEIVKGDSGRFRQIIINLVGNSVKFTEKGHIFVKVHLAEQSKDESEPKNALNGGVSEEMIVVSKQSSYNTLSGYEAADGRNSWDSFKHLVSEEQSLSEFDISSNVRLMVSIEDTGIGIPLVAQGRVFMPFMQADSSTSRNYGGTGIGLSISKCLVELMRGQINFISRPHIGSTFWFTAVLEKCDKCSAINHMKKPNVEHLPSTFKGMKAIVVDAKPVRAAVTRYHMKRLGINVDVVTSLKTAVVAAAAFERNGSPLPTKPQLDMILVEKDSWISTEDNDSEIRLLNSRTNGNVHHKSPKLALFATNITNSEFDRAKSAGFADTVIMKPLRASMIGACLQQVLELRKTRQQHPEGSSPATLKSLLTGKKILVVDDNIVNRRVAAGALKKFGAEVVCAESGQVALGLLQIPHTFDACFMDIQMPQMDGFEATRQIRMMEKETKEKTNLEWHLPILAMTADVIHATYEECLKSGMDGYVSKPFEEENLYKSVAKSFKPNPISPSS

| IC50 [3, 7] [µM] | SMILES | complementation of wild type shoot phenotype [1] | root growth [2] | further results |
| --- | --- | --- | --- | --- |
|  | c1ccc(CNc2ncnc3nc[nH]c23)cc1 [BAP, 6-benzylaminopurine] | cannot be reached | inhibited root growth |  |
| 6.7 | COc1cccc(Nc2nc(Cl)nc3nc[nH]c23)c1 [INCYDE, 2-chloro-6-(3-methoxyanilino)purine] | led to restauration of wild type shoot phenotype | inhibited root growth | root biomass of 35S:CKX1 plants ([1]; tested concentration range, FIG. 5): did not influence the root biomass |
| 5.2 | COc1cccc(Nc2nc(F)nc3[nH]cnc23)c1 [INCYDE-F, 2-fluoro-6-(3-methoxyanilino)purine, reference compound] |  |  |  |
|  | O=C(Nc1ccccc1)Nc1cnns1 [thidiazuron, reference compound] |  |  | IC50 [3]: 55 µM |

| SMILES | IC50 [3, 7] [µM] | complementation of wild type shoot phenotype [1] | root growth [2] | further results |
| --- | --- | --- | --- | --- |
| COc1cccc(Nc2nc(F)nc3c2ncn3C2CCCCO2)c1 (stereo not drawn) [compound 91, 2-fluoro-6-(3-methoxyanilino)-9-(tetrahydropyran-2-yl)purine] | 380 |  |  | ability to activate cytokinin receptor AHK3 [4]: do not activate any of the receptors; ability to activate cytokinin receptor CRE1/AHK4 [5]: do not activate any of the receptors; induction of ARR5:GUS expression [6]: dose-dependent induction of ARR5:GUS expression |
